Experimental data reported in US6048874A, “Parenteral metolazone formulations” (priority 1999, dated 2000).
Values after ≈ are worked out from the molar mass of the structure shown. Values joined by “and” are separate entries in the source; they are usually repeats but may differ in a detail not shown here. Equal values may be shown once.

Tests used:
[1] = cited from earlier work
[2] = Apparent equilibrium solubility, spectrophotometric assay at 346 nm; assay type: physicochemical; details: aqueous propylene glycol/ethanol, organic solvent or mixture
Experimental: The apparent equilibrium solubility of metolazone in an aqueous solvent of 65% w/v propylene glycol/15% w/v ethyl alcohol (95% v/v in water) was determined as described below.
A 250 mg quantity of metolazone was equilibrated with 20 ml of a solvent consisting of 65% w/v propylene glycol, 15% w/v ethyl alcohol (95% v/v in water), and water for 24 hours at room temperature on a wrist action shaker. […] After equilibration, the solution was filtered through a 0.45 μm filter, diluted, and assayed spectrophotometrically at 346 nm.

[3] = Apparent equilibrium solubility redetermined, UV analysis; assay type: physicochemical; details: 65% w/v propylene glycol/15% w/v ethyl alcohol/water, UV 235 nm
Experimental: (§1) The apparent equilibrium solubility was redetermined more accurately as follows. A 300 g quantity of ethyl alcohol (95% v/v in water) and 1300 g of propylene glycol were added to a 2000 ml volumetric flask and mixed well. Next, purified water was added q.s. to 2000 ml. This is the solvent.
(§2) Nine 30 ml amber bottles were filled with 25 ml of the solvent and 400 mg of metolazone and mixed on a wrist arm shaker for 24 hours (3 bottles), 48 hours (3 bottles), and 72 hours (3 bottles). The samples were filtered through a membrane filter (Whatman 25 mm 601X Nylon Filter (0.45 μm)). The concentration of the samples was determined by HPLC and by UV analysis.
The sample concentrations were measured by the UV absorbance at 235 nm using an UV/VIS spectrophotometer (HP 8453, available from Hewlett-Packard, Palo Alto, Calif.).

[4] = cited from earlier work; remark: listed apart in the source
[5] = Apparent equilibrium solubility redetermined, HPLC analysis; assay type: physicochemical; details: 65% w/v propylene glycol/15% w/v ethyl alcohol/water
Experimental: as §1, §2
The sample concentrations were analyzed by an HPLC system (HP 1100, available from Hewlett-Packard, Palo Alto, Calif.) equipped with a C18 column and an UV detector set at 230 nm. The mobile phase consisted of water and methanol at a ratio of 62/38 (v/v) and was used at a flow rate of 1.5 ml/minute.

[6] = diuretic; cited from earlier work
[7] = cited from earlier work; remark: listed apart in the source

Structure (SMILES): Cc1ccccc1N1C(=O)c2cc(S(N)(=O)=O)c(Cl)cc2NC1C (stereo not shown) [Metolazone, 7-chloro-1,2,3,4-tetrahydro-2-methyl-3-(2-methylphenyl)-4-oxo-6-quinazolinesulfonamide]
- solubility in water [1]: about 0.02 mg/ml
- solubility thermodynamic at 24 h ([2]; 65% w/v propylene glycol, 15% w/v ethyl alcohol (95% v/v in water), water, 24 hours, room temperature, spectrophotometric 346 nm): 8360 µg/mL (≈ 22.9 mM)
- solubility thermodynamic ([2]; aqueous 65% w/v propylene glycol, 15% w/v ethyl alcohol, read-out: apparent equilibrium solubility limit): ~8000 µg/mL (≈ 21.9 mM)
- solubility thermodynamic at 24 h ([3]; aqueous propylene glycol/ethanol, organic solvent or mixture, shaken 24 hrs, read-out: Concentration of Metolazone, UV (apparent equilibrium solubility)): 8090 µg/mL (≈ 22.1 mM)
- solubility thermodynamic at 48 h ([3]; aqueous propylene glycol/ethanol, organic solvent or mixture, shaken 48 hrs, read-out: Concentration of Metolazone, UV (apparent equilibrium solubility)): 7580 µg/mL (≈ 20.7 mM)
- solubility thermodynamic at 72 h ([3]; aqueous propylene glycol/ethanol, organic solvent or mixture, shaken 72 hrs, read-out: Concentration of Metolazone, UV (apparent equilibrium solubility)): 7300 µg/mL (≈ 20 mM)
- Concentration of Metolazone, UV (apparent equilibrium solubility) ([3]; shaken 24 hrs, 1440 min): 7540 µg/mL and 7410 µg/mL
- Concentration of Metolazone, UV (apparent equilibrium solubility) ([3]; shaken 48 hrs, 2880 min): 7560 µg/mL and 7430 µg/mL
- Concentration of Metolazone, UV (apparent equilibrium solubility) ([3]; shaken 72 hrs, 4320 min): 7310 µg/mL and 7550 µg/mL
- pH of aqueous solution sufficient to solubilize metolazone ([4]; aqueous solution, alkali hydroxides): about 11
- chemical stability at high pH ([4]; pH of about 11): chemically unstable
- solubility thermodynamic at 24 h ([5]; aqueous propylene glycol/ethanol, organic solvent or mixture, shaken 24 hrs, read-out: Concentration of Metolazone, HPLC (apparent equilibrium solubility)): 7900 µg/mL (≈ 21.6 mM)
- solubility thermodynamic at 48 h ([5]; aqueous propylene glycol/ethanol, organic solvent or mixture, shaken 48 hrs, read-out: Concentration of Metolazone, HPLC (apparent equilibrium solubility)): 7810 µg/mL (≈ 21.3 mM)
- solubility thermodynamic at 72 h ([5]; aqueous propylene glycol/ethanol, organic solvent or mixture, shaken 72 hrs, read-out: Concentration of Metolazone, HPLC (apparent equilibrium solubility)): 7610 µg/mL (≈ 20.8 mM)
- Concentration of Metolazone, HPLC (apparent equilibrium solubility) ([5]; shaken 24 hrs, 1440 min): 7730 µg/mL and 7650 µg/mL
- Concentration of Metolazone, HPLC (apparent equilibrium solubility) ([5]; shaken 48 hrs, 2880 min): 7680 µg/mL and 7660 µg/mL
- Concentration of Metolazone, HPLC (apparent equilibrium solubility) ([5]; shaken 72 hrs, 4320 min): 7680 µg/mL and 7910 µg/mL
- potency, on a weight basis, vs quinethazone or hydrochlorothiazide [6]: greater potency
- decomposition when exposed to light [7]: decompose when exposed to light
